Test results published in patent US20230295560A1, “SYNTHETIC ECOLOGIES FOR DRUG DISCOVERY” (priority 2021, published 2023).

Experiments:
E. coli BW25113 = experiment: Minimum inhibitory concentration (MIC) of DOX for E. coli BW25113 ancestor and end-point isolates; format: cell-based
Method: Experimental protocol. Five populations of E. coli were adapted to DOX in flasks to identify the selection gradient for adaptation to DOX. On the first day, six different colonies were used to inoculate control and five populations containing fresh media. The growth media for E. coli was Lysogeny broth (LB; 10 g/l tryptone, 5 g/l yeast extract, 5 g/l sodium chloride). The following day, each population was transferred to fresh media containing 1 μg/ml DOX with 100-fold dilutions. The fresh media containing desired DOX concentration was prepared by appropriate dilution of DOX stock solution. The stock solution was prepared by dissolving DOX (Tokyo Chemical Industry Co., LTD, Japan) in water, followed by filter sterilization through a 0.22 μm filter (Millex-GP, Millipore, Bedford, MA). The following day, each population was transferred to three tubes containing 1×, 1.5×, and 2× of the current DOX concentration. Hereafter, each population with the best growth was transferred into three new tubes while the control population was propagated in fresh media until twice the DOX clinical breakpoint (16 μg/ml) was reached. In a similar way, on the first day of serial transfer of E. coli to DOX in microdroplets, four to six different colonies were used to inoculate control and three to five populations containing fresh media. The following day, the growth media containing a starting size of ˜2.6×10^6 cells/ml was prepared for each population through appropriate dilution of overnight culture. Fluorinated oil (Novec 7500, 3M, St Paul, MN) with 1.5 w/w % surfactants (Pico-Surf 1™, Sphere Fluidics, Cambridge, UK) was the continuous phase while the growth media containing E. coli was the dispersed phase. These prepared continuous and dispersed phases were injected into four to six microfluidic chips using twelve-multi channel syringe pumps (New Era Pump Systems, Farmingdale, NY) with determined flow rates. More than 800 μl droplets for each population were collected in either a 1.5 ml microfuge tube or a 50 ml tube for the incubation at 37° C. After incubation for 24 h, these droplets were chemically broken with a demulsifier (1H, 1H, 2H, 2H-Perfluorooctanol, >97%, Alfa Aesar, Ward Hill, MA). After OD measurement, cells were propagated by dilution in fresh growth media containing higher DOX concentrations until a concentration of 16 μg/ml. Experiment images were captured using a bright-field inverted microscope (Eclipse Ti2, Nikon, Japan) with a mounted high-speed camera (Phantom V7.2).
At the end of the experiment, individual end-point isolates were isolated randomly by streaking the entire population onto non-selective, nutrient-rich agar plates. End point isolates are defined as randomly selected, independent colonies derived from an evolved population. Since evolved populations are diverse, each end point isolate could potentially have different genotypes. A minimum of three end-point isolates was subjected to whole genome sequencing from each experimental evolution study. In addition, total genomic DNA for each evolved population was isolated and subjected to metagenomic analysis to identify the allelic frequency in the final populations (Dataset S1-S6). The populations were sequenced to achieve at least 100× coverage and a threshold of 5% was used to identify mutations. Both serial transfer and microdroplet populations identified the well-known adaptive alleles marR, acrR, rpsJ and envZ^32-35 as well as the movement of an insertion element IS186 into the upstream regulatory region of the gene encoding the Lon protease (FIG. 17). […] Both methods clearly implicated regulation of the AcrAB-TolC as the fundamental driver for DOX resistance, but there were interesting differences in the evolutionary trajectories identified.

P. aeruginosa PAO1 = settings: cited from earlier work
Enterobacter species = settings: some Enterobacter species, after exposure to gradually increasing concentrations; cited from earlier work

C[C@H]1c2cccc(O)c2C(O)=C2C(=O)[C@]3(O)C(O)=C(C(N)=O)C(=O)[C@@H](N(C)C)[C@@H]3[C@@H](O)[C@@H]21 [DOX]
8 µg/mL: MIC of DOX (E. coli BW25113; microemulsion D1, end-point isolate 1-1) | MIC of DOX (E. coli BW25113; microemulsion D1, end-point isolate 1-2) | MIC of DOX (E. coli BW25113; microemulsion D1, end-point isolate 1-3) | MIC of DOX (E. coli BW25113; microemulsion D3, end-point isolate 2-1) | MIC of DOX (E. coli BW25113; microemulsion D3, end-point isolate 2-3) | MIC of DOX (E. coli BW25113; microemulsion D3, end-point isolate 3-2) | MIC of DOX (E. coli BW25113; microemulsion D4, end-point isolate 5-3)
16 µg/mL: MIC of DOX (E. coli BW25113; F (batch), end-point isolate 1-2) | MIC of DOX (E. coli BW25113; F (batch), end-point isolate 1-3) | MIC of DOX (E. coli BW25113; F (batch), end-point isolate 2-1) | MIC of DOX (E. coli BW25113; F (batch), end-point isolate 2-2) | MIC of DOX (E. coli BW25113; F (batch), end-point isolate 3-1) | MIC of DOX (E. coli BW25113; F (batch), end-point isolate 3-2) | MIC of DOX (E. coli BW25113; F (batch), end-point isolate 3-3) | MIC of DOX (E. coli BW25113; F (batch), end-point isolate 4-1) | MIC of DOX (E. coli BW25113; F (batch), end-point isolate 4-2) | MIC of DOX (E. coli BW25113; F (batch), end-point isolate 5-1) | MIC of DOX (E. coli BW25113; microemulsion D1, end-point isolate 2-1) | MIC of DOX (E. coli BW25113; microemulsion D1, end-point isolate 2-2) | MIC of DOX (E. coli BW25113; microemulsion D1, end-point isolate 2-3) | MIC of DOX (E. coli BW25113; microemulsion D1, end-point isolate 3-1) | MIC of DOX (E. coli BW25113; microemulsion D1, end-point isolate 3-2) | MIC of DOX (E. coli BW25113; microemulsion D1, end-point isolate 3-3) | MIC of DOX (E. coli BW25113; microemulsion D1, end-point isolate 4-1) | MIC of DOX (E. coli BW25113; microemulsion D1, end-point isolate 4-3) | MIC of DOX (E. coli BW25113; microemulsion D1, end-point isolate 5-1) | MIC of DOX (E. coli BW25113; microemulsion D1, end-point isolate 5-2) | MIC of DOX (E. coli BW25113; microemulsion D1, end-point isolate 5-3) | MIC of DOX (E. coli BW25113; microemulsion D2, end-point isolate 1-1) | MIC of DOX (E. coli BW25113; microemulsion D2, end-point isolate 1-2) | MIC of DOX (E. coli BW25113; microemulsion D2, end-point isolate 1-3) | MIC of DOX (E. coli BW25113; microemulsion D2, end-point isolate 2-1) | MIC of DOX (E. coli BW25113; microemulsion D2, end-point isolate 2-2) | MIC of DOX (E. coli BW25113; microemulsion D2, end-point isolate 2-3) | MIC of DOX (E. coli BW25113; microemulsion D2, end-point isolate 3-1) | MIC of DOX (E. coli BW25113; microemulsion D2, end-point isolate 3-2) | MIC of DOX (E. coli BW25113; microemulsion D2, end-point isolate 3-3) | MIC of DOX (E. coli BW25113; microemulsion D2, end-point isolate 4-1) | MIC of DOX (E. coli BW25113; microemulsion D2, end-point isolate 4-2) | MIC of DOX (E. coli BW25113; microemulsion D2, end-point isolate 4-3) | MIC of DOX (E. coli BW25113; microemulsion D2, end-point isolate 5-1) | MIC of DOX (E. coli BW25113; microemulsion D2, end-point isolate 5-2) | MIC of DOX (E. coli BW25113; microemulsion D2, end-point isolate 5-3) | MIC of DOX (E. coli BW25113; microemulsion D3, end-point isolate 1-1) | MIC of DOX (E. coli BW25113; microemulsion D3, end-point isolate 1-2) | MIC of DOX (E. coli BW25113; microemulsion D3, end-point isolate 1-3) | MIC of DOX (E. coli BW25113; microemulsion D3, end-point isolate 2-2) | MIC of DOX (E. coli BW25113; microemulsion D3, end-point isolate 3-1) | MIC of DOX (E. coli BW25113; microemulsion D3, end-point isolate 3-3) | MIC of DOX (E. coli BW25113; microemulsion D3, end-point isolate 4-1) | MIC of DOX (E. coli BW25113; microemulsion D3, end-point isolate 4-2) | MIC of DOX (E. coli BW25113; microemulsion D3, end-point isolate 4-3) | MIC of DOX (E. coli BW25113; microemulsion D3, end-point isolate 5-1) | MIC of DOX (E. coli BW25113; microemulsion D3, end-point isolate 5-2) | MIC of DOX (E. coli BW25113; microemulsion D3, end-point isolate 5-3) | MIC of DOX (E. coli BW25113; microemulsion D4, end-point isolate 4-1) | MIC of DOX (E. coli BW25113; microemulsion D4, end-point isolate 4-2) | MIC of DOX (E. coli BW25113; microemulsion D4, end-point isolate 4-3) | MIC of DOX (E. coli BW25113; microemulsion D4, end-point isolate 5-1) | MIC of DOX (E. coli BW25113; microemulsion D4, end-point isolate 5-2) | MIC of DOX (E. coli BW25113; microemulsion D5, end-point isolate 1-1) | MIC of DOX (E. coli BW25113; microemulsion D5, end-point isolate 1-3) | MIC of DOX (E. coli BW25113; microemulsion D5, end-point isolate 2-2) | MIC of DOX (E. coli BW25113; microemulsion D5, end-point isolate 2-3) | MIC of DOX (E. coli BW25113; microemulsion D5, end-point isolate 3-2)
>16 µg/mL: MIC of DOX (E. coli BW25113; F (batch), end-point isolate 1-1) | MIC of DOX (E. coli BW25113; F (batch), end-point isolate 2-3) | MIC of DOX (E. coli BW25113; F (batch), end-point isolate 4-3) | MIC of DOX (E. coli BW25113; F (batch), end-point isolate 5-2) | MIC of DOX (E. coli BW25113; F (batch), end-point isolate 5-3) | MIC of DOX (E. coli BW25113; microemulsion D1, end-point isolate 4-2) | MIC of DOX (E. coli BW25113; microemulsion D5, end-point isolate 1-2) | MIC of DOX (E. coli BW25113; microemulsion D5, end-point isolate 2-1) | MIC of DOX (E. coli BW25113; microemulsion D5, end-point isolate 3-1) | MIC of DOX (E. coli BW25113; microemulsion D5, end-point isolate 3-3)
4 µg/mL: MIC of DOX (E. coli BW25113; F (batch), isolate C1 (no drug control)) | MIC of DOX (E. coli BW25113; F (batch), isolate C2 (no drug control)) | MIC of DOX (E. coli BW25113; F (batch), isolate C3 (no drug control)) | MIC of DOX for the ancestor (E. coli BW25113; ancestor E. coli BW25113) | MIC of DOX (E. coli BW25113; microemulsion D1, isolate C1 (no drug control)) | MIC of DOX (E. coli BW25113; microemulsion D1, isolate C2 (no drug control)) | MIC of DOX (E. coli BW25113; microemulsion D1, isolate C3 (no drug control)) | MIC of DOX (E. coli BW25113; microemulsion D2, isolate C1 (no drug control)) | MIC of DOX (E. coli BW25113; microemulsion D2, isolate C2 (no drug control)) | MIC of DOX (E. coli BW25113; microemulsion D2, isolate C3 (no drug control)) | MIC of DOX (E. coli BW25113; microemulsion D3, isolate C1 (no drug control)) | MIC of DOX (E. coli BW25113; microemulsion D3, isolate C2 (no drug control)) | MIC of DOX (E. coli BW25113; microemulsion D3, isolate C3 (no drug control)) | MIC of DOX (E. coli BW25113; microemulsion D4, isolate C1 (no drug control)) | MIC of DOX (E. coli BW25113; microemulsion D4, isolate C2 (no drug control)) | MIC of DOX (E. coli BW25113; microemulsion D4, isolate C3 (no drug control)) | MIC of DOX (E. coli BW25113; microemulsion D5, isolate C1 (no drug control)) | MIC of DOX (E. coli BW25113; microemulsion D5, isolate C2 (no drug control)) | MIC of DOX (E. coli BW25113; microemulsion D5, isolate C3 (no drug control))

O=C(N[C@H](CO)[C@H](O)c1ccc([N+](=O)[O-])cc1)C(Cl)Cl [chloramphenicol]
32 µg/mL: MIC (P. aeruginosa PAO1)

benzalkonium chloride
5-300 fold: increase in minimum inhibitory concentration (Enterobacter species)
